Results published in EP0403249A1, “Leukotriene antagonists” (SMITHKLINE BEECHAM CORPORATION, priority 1989, dated 1990).

Tested on: LTD₄
Experiment: Inhibition of leukotriene (LTD₄) induced contraction of guinea pig tracheal tissues in vitro
Conditions: LTD₄ concentration-response on guinea pig tracheal spiral strips, 30 minutes pretreatment with test compound, EC₃₀ shift; current average where tested more than once
Protocol: The leukotriene antagonist activity of the compounds of this invention is measured by the ability of the compounds to inhibit the leukotriene induced contraction' of guinea pig tracheal tissues in vitro. The following methodology was employed: In vitro: Guinea pig (adult male albino Hartley strain) tracheal spiral strips of approximate dimensions 2 to 3 mm cross-sectional width and 3.5 cm length were bathed in modified Krebs buffer in jacketed 10 ml tissue bath and continuously aerated with 95% 0₂/5% CO₂. The tissues were connected via silk suture to force displacement transducers for recording isometric tension. The tissues were equilibrated for 1 hr., pretreated for 15 minutes with meclofenamic acid (1uM) to remove intrinsic prostaglandin responses, and then pretreated for an additional 30 minutes with either the test compound or vehicle control. A cumulative concentration-response curve for LTD₄ on triplicate tissues was generated by successive increases in the bath concentration of the LTD₄. In order to minimize intertissue variability, the contractions elicited by LTD₄ were standardized as a percentage of the maximum response obtained to a reference agonist, carbachol (10uM).
Calculations: The averages of the triplicate LTD₄ concentration-response curves both in the presence and absence of the test compound were plotted on log graph paper. The concentration of LTD₄ needed to elicit 30% of the contraction elicited by carbachol was measured and defined as the EC₃₀. The -log KB value for the test compound was determined by the following equations: [formula] 2. KB= concentration of test compound/(X-1)
The antagonist activity of representative compounds of this invention is listed in Table I. The -log KB values were calculated from the above protocol. Where compounds were tested more than once, the -log KB values given here represent the current average data.

| SMILES | In Vitro-Log KB |
| --- | --- |
| O=C(O)c1ccccc1SC(c1ccccc1CCCCCCCCc1ccccc1)C(O)C(=O)O (stereo not shown) [1), 2-Hydroxy-3-(2-carboxyphenylthio)-3-[2-(8-phenyloctyl)phenyl]propionic acid] | 5.5 |
| O=C(O)c1ccccc1CS[C@H](c1ccccc1CCCCCCCCc1ccccc1)[C@@H](O)C(=O)O [2), 2(S)-Hydroxy-3(R)-(2-carboxyphenylmethylthio)-3-[2-(8-phenyloctyl)phenyl]propionic acid] | 6.2 |
| O=C(O)c1cccc(CS[C@H](c2ccccc2CCCCCCCCc2ccccc2)[C@@H](O)C(=O)O)c1 [3), 2(S)-Hydroxy-3(R)-(3-carboxyphenylmethylthio)-3-[2-(8-phenyloctyl)phenyl]propionic acid] | 6.6 |
| O=C(O)c1cccc(SC(c2ccccc2CCCCCCCCc2ccccc2)C(O)C(=O)O)c1 (stereo not shown) [4), 2-Hydroxy-3-(3-carboxyphenylthio)-3-[2-(8-phenyloctyl)phenyl]propionic acid] | 7.0 |
| O=C(O)c1ccc(SC(c2ccccc2CCCCCCCCc2ccccc2)C(O)C(=O)O)cc1 (stereo not shown) [5), 2-Hydroxy-3-(4-carboxyphenylthio)-3-[2-(8-phenyloctyl)phenyl]propionic acid] | 7.6 |
| COc1cc(C(=O)O)ccc1CSC(c1ccccc1CCCCCCCCc1ccccc1)C(O)C(=O)O (stereo not shown) [6), 2-Hydroxy-3-(4-carboxy-2-methoxyphenylmethylthio)-3-[2-(8-phenyloctyl)phenyl]propionic acid] | 7.9 |
| O=C(O)c1ccc(CSC(c2ccccc2CCCCCCCCc2ccccc2)C(O)C(=O)O)cc1 (stereo not shown) [7), 2-Hydroxy-3-(4-carboxyphenylmethylthio)-3-[2-(8-phenyloctyl)phenyl]propionic acid] | 7.1 |
| O=C(O)c1ccc(CSC(c2ccccc2CCCCCCCCc2ccccc2)C(O)C(=O)O)c(F)c1 (stereo not shown) [8), 2-Hydroxy-3-(2-fluoro-4-carboxyphenylmethylthio)-3-[2-(8-phenyloctyl)phenyl]propionic acid] | 7.8 |
| COC(C(=O)O)C(Sc1ccc(C(=O)O)cc1)c1ccccc1CCCCCCCCc1ccccc1 (stereo not shown) [9), 2-Methoxy-3-(4-carboxyphenylthio)-3-[2-(8-phenyloctyl)phenyl]propionic acid] | 7.6 |
| O=C(O)C(O)C(Sc1ccc(O)cc1)c1ccccc1CCCCCCCCc1ccccc1 (stereo not shown) [10), 2-Hydroxy-3-(4-hydroxyphenylthio)-3-[2-(8-phenyloctyl)phenyl]propionic acid] | 5.9 |
| COc1cc(C(=O)O)ccc1CSC(c1ccccc1CCCCCCCCc1ccccc1)C(OC)C(=O)O (stereo not shown) [11), 2-Methoxy-3-(4-carboxy-2-methoxyphenylmethylthio)-3-[2-(8-phenyloctyl)phenyl]propionic acid] | 7.4 |
| COc1cc(C(=O)O)ccc1CSC(CC(=O)O)c1ccccc1CCCCCCCCc1ccccc1 (stereo not shown) [12), 3-(4-Carboxy-2-methoxyphenylmethylthio)-3-[2-(8-phenyloctyl)phenyl]propionic acid] | 7.5 |
| COc1ccc(C(=O)O)cc1CSC(c1ccccc1CCCCCCCCc1ccccc1)C(O)C(=O)O (stereo not shown) [13), 2-Hydroxy-3-[(5-carboxy-2-methoxyphenylmethyl)thio]-3-[2-(8-phenyloctyl)phenyl]propionic acid] | 6.5 |
